Measured values as given in patent publication US11383241B2, “Mechano-node pore sensing” (The Regents of the University of California, priority 2017, dated 2022).

Assays:
Assay type in all cases: cell-based, human
MCF-7 cells = assay: mechano-NPS mechanical phenotyping of Latrunculin-treated MCF-7 cells; settings: for cellular deformation in the transverse direction (δdeform) compared to control: one hour at 37° C.; for cellular deformation in the transverse direction (δdeform) compared to control / wCDI (whole cell deformability index) compared to untreated control cells: strain εavg˜0.3; for treated cells that instantaneously recover from deformation: ΔTr˜0 ms, untreated 38.3%
Excerpt: (§1) Platform design, including geometry and sizing, may be configured and adapted to target indications, such as cell type and size range. In this example, the platform comprises of a 30 μm-high microfluidic channel embedded in a polydimethylsiloxane (PDMS) mold bonded to a glass substrate with pre-defined platinum (Pt) electrodes and gold (Au) contact pads (FIG. 1a). The central part of the channel, which we refer to as the “contraction channel”, is long (2055 μm) and narrow (10 or 12 μm-wide) and flanked on either side by a series of nodes and pores that are 85 μm and 25 μm wide, respectively (FIG. 1a, inset). The length of the contraction channel was chosen to provide sufficient time (˜30 ms) over which a cell experiences constant applied strain. The node and pore dimensions were chosen for sufficient signal-to noise ratios. Given the flexibility and ease of device design and fabrication, different contraction channel lengths and node and pore dimensions could be employed. Filters that are 25 μm in width (the width chosen based on the size range of cells measured in these studies, ˜15-20 μm in diameter) are included at the entrance of the microfluidic channel in order to remove cellular clusters that may otherwise clog the device. Applying a constant DC voltage (1 V) across the channel, we employ a four-terminal measurement technique^37-40 to measure the current pulses caused by cells transiting across the microfluidic channel when a non-pulsatile pressure of ˜21 kPa (determined by a commercial pressure gauge, SSI Technologies) is utilized (FIG. 1b and FIG. 2). After low-pass filtering all current versus time data, we employ custom-written software to extract both the magnitude and duration of each current sub-pulse (ΔInp, ΔIc, ΔTcont, and ΔTr in FIG. 1b; FIG. 3).
(§2) We disrupted actin polymerization with Latrunculin A and B (LatA and LatB, Enzo Life Sciences)^50. Prior to deformability measurements, MCF-7 and MCF-10A cells were incubated with 2.5 or 5 μg/mL LatA or LatB in each cell's respective growth medium for one hour at 37° C. and 5% CO2^29, 51, 52. Cells were then released from culture flasks with 0.25% trypsin/EDTA, rinsed once with PBS, centrifuged at […], and re-suspended in PBS at a concentration of ˜100,000 cells/mL. […] They were then permeabilized with 0.1% Triton-X 100 (Sigma-Aldrich) in PBS for 5 min. Cell nuclei and F-actin were then counter-stained with 4′,6-diamidino-2-phenylindole (DAPI, Sigma-Aldrich, 10236276001) and rhodamine phalloidin (Thermo Fisher Scientific, R415), respectively, per manufacturer's protocol, and then imaged with a Zeiss LSM710 confocal microscope.
(§3) To determine De, we measure polystyrene microspheres of known size with the microfluidic channel. Using the values of ΔI/I arising from the microspheres, along with the known values of L and d (the size of the microspheres in this instance), we can numerically solve for De in Equation (5). Once De is known, we can subsequently determine Dcell of a screened cell by numerically solving for d in Equation (5) using the obtained values of ΔInp/I. We can also determine the volume of the deformed cell, Vdeform, by the relationship^39, 57, 58, ΔIc/I˜Vdeform/Vcontraction, where Vcontraction is the volume of the contraction channel. To calculate Ldeform, we assume the cell undergoes an isometric deformation in the direction of both the channel's longitudinal axis and channel height, resulting in an oblate-spheroid shape. From the relationship between the volume and major radius of the oblate spheroid, Vdeform=πwcLdeform^2/6 where wc is the contraction-channel width, we can determine Ldeform from ΔIc/I. We quantify the transverse deformation of the cell, δdeform=Ldeform/Dcell, as it transits the contraction channel.
(§4) As a cell traverses through each section of the channel, the duration of the resulting sub-pulse produced by a cell corresponds to the cell's transit time (ΔT) through that part of the channel. […]

MCF-10A cells = assay: mechano-NPS mechanical phenotyping of Latrunculin-treated MCF-10A cells; settings: for cellular deformation in the transverse direction (δdeform) compared to control: one hour at 37° C.; for cellular deformation in the transverse direction (δdeform) compared to control / wCDI (whole cell deformability index) compared to untreated control cells: strain εavg˜0.3; for treated cells that do not recover within the 40 ms time window (prolonged recovery): ΔTr>40 ms, untreated 9.7%
Excerpt: as §1, §2, §3, §4

F-actin filaments = assay: F-actin staining (rhodamine phalloidin) and confocal microscopy of treated cells; settings: MCF-7 and MCF-10A cells, after one hour incubation; more so with Lat-A than with Lat-B
Experimental: as §2

C/C1=C/C(=O)O[C@@H]2C[C@@H](CC[C@H](C)/C=C\CC1)O[C@@](O)([C@@H]1CSC(=O)N1)C2 [LatB, Latrunculin B]
cellular deformation in the transverse direction (δdeform) compared to control (MCF-7 cells; 2.5 or 5 μg/mL): significantly reduced | wCDI (whole cell deformability index) compared to untreated control cells (MCF-7 cells): increased | treated cells that instantaneously recover from deformation (MCF-7 cells): 24.2% | cellular deformation in the transverse direction (δdeform) compared to control (MCF-10A cells; 2.5 or 5 μg/mL): significantly reduced | wCDI (whole cell deformability index) compared to untreated control cells (MCF-10A cells): no detectable change | treated cells that do not recover within the 40 ms time window (prolonged recovery) (MCF-10A cells): 41.4% | F-actin filaments by staining and confocal microscopy (F-actin filaments): inhibited

C/C1=C/C(=O)O[C@@H]2C[C@@H](CC[C@H](C)/C=C\C=C\CC1)O[C@@](O)([C@@H]1CSC(=O)N1)C2 [LatA, Latrunculin A]
change in wCDI as a function of treatment concentration (MCF-7 cells; 2.5 or 5 μg/mL): increased with concentration | cellular deformation in the transverse direction (δdeform) compared to control (MCF-7 cells; 2.5 or 5 μg/mL): significantly reduced | wCDI (whole cell deformability index) compared to untreated control cells (MCF-7 cells): increased | treated cells that instantaneously recover from deformation (MCF-7 cells): 8.1% | change in wCDI as a function of treatment concentration (MCF-10A cells; 2.5 or 5 μg/mL): increased with concentration | cellular deformation in the transverse direction (δdeform) compared to control (MCF-10A cells; 2.5 or 5 μg/mL): significantly reduced | wCDI (whole cell deformability index) compared to untreated control cells (MCF-10A cells): increased | treated cells that do not recover within the 40 ms time window (prolonged recovery) (MCF-10A cells): 66.7% | F-actin filaments by staining and confocal microscopy (F-actin filaments): inhibited
